US20050120403A1, “Inhibition of generative propagation in genetically modified herbicide resistant grasses” (Advanta Seeds B. V., priority 2000, published 2005)
Marks after values point to notes of the source that are not given here.

Assays:
[1] = tested on: Lolium perenne L. (perennial ryegrass) AtH1-expressing transformants; assay: Relief of delayed heading by gibberellins (spraying, Long Day conditions); type: in vivo; conditions: for Mean Heading Time: transformant (T) plants, 30 mg/L in 5% ethanol + 0.01% Tween-20, sprayed six times over two weeks, days after the first spraying; for effect on heading as compared to non-treated controls: transformant plants, gibberellin 30 mg/L spray
Description: Primary transformants derived from Lolium perenne L. (perennial ryegrass) using pVDH636 were vernalized and then subjected to Long Day (LD) conditions in the greenhouse (17 hr light/7 hr dark). […] AtH1-expressing plants are generally very leafy (FIG. 10).
Four different gibberellin compounds, which differ in their florigenicity (Evans et al., 1990), were used to treat 34 clones per compound and their effect on heading time of transformants and controls was observed. Gibberellin was applied in solvent (5% ethanol supplemented with 0.01% Tween-20 surfactant) at 30 mg/L. It was applied by spraying six times with about 2-3 ml per plant over two weeks, started one week after the beginning of LD conditions. Mean heading time is shown in days after the first spraying. Non-transformant controls were treated with the solvent only.
Transformant (T) and non-transformant (NT) control plants (Table 5) were treated with the indicated gibberellin. […] Variation between transformants for their sensitivity to gibberellins could be great.

[2] = tested on: Arabidopsis and tobacco overexpressing AtH1; conditions: exogenous application; AtH1 overexpression in dicots; cited from earlier work

16,17-dihydro-GA5 [diHGA5]
Mean Heading Time [1]: 34.2 ^ab days

C=C1C[C@]23C[C@@]1(O)CC[C@H]2[C@@]12C=C[C@H](O)[C@@](C)(C(=O)O1)[C@H]2[C@@H]3C(=O)O [GA3, gibberellic acid]
Mean Heading Time [1]: 34.1 ^ab days | reversal of inhibited flowering phenotype [2]: can be reversed

C=C1C[C@]23C[C@@]1(O)CC[C@H]2[C@@]12CC=C[C@@](C)(C(=O)O1)[C@H]2[C@@H]3C(=O)O [GA5]
Mean Heading Time [1]: 33.5 ^a days | effect on heading as compared to non-treated controls [1]: significantly stimulated heading

C=C1C[C@]23C[C@@]1(O)CC[C@H]2[C@@]12CCC[C@@](C)(C(=O)O1)[C@H]2[C@@H]3C(=O)O [GA20]
Mean Heading Time [1]: 37.8 ^b days | effect on heading as compared to non-treated controls [1]: somewhat delayed heading
